# Assay: Amount of GLCN present following heating (HPAEC-PAD recovery)
# Format: physicochemical
# Experimental: To determine the amount of GLCN that remains following exposing GLCN beverages to a high temperature, such as those used in pasteurization, the following methods were used.
# A beverage sample as described in the preceding examples containing […] of GLCN was dispersed in 25 g of 1.0 N HCl in a 50-mL polypropylene centrifuge tube and capped tightly. The sample was mixed for 30 seconds using a vortex mixer, then placed in a water bath at 37° C. The sample was removed from the water bath at 15-minute intervals, mixed for 30 seconds on a vortex mixer, then returned to the water bath. This cycle was repeated until the sample had been in the water bath for one hour.
# After heating, the sample was mixed for 30 seconds on a vortex mixer, then centrifuged for 10 minutes to separate the liquid and solid phases. Fats, oils or lipids in the sample formed a third layer at the top of the tube. A 1-g aliquot of the aqueous sample portion was diluted 100-fold with deionized water, then transferred to an autosampler vial with filter cap.
# The free glucosamine in prepared samples was determined using high performance anion-exchange chromatography with pulsed amperometric detection ([…]). The system included an EG40 eluent generator, GP50 gradient pump, AS40 autosampler, LC25 column oven, and ED40 electrochemical detector, all produced by Dionex Corporation (Sunnyvale, Calif.).
# The method was adapted from Dionex Corporation Technical Note 40. A Dionex CarboPac PA-20 column was used in place of the PA-10 described in the Technical Note. The eluent was 8 mM KOH at 0.5 mL/min. The column and detector were maintained at 30° C. The injection volume was 10 μL. The standard was glucosamine hydrochloride at 10.8 mg/L. Fermentation broth samples were diluted five-fold with deionized water, ASTM Type II, and filtered through 0.2 μ vial filters in the autosampler. Multiple standards were analyzed before and after each sample set.
compound,measurement,setting,value
"N[C@H]1C(O)O[C@H](CO)[C@@H](O)[C@@H]1O (some centres unmarked) [GLCN, glucosamine]",% GlcNHCl Recovered,"Grape juice, boil, 5 min",102%
same,% GlcNHCl Recovered,"Lemonade, 71 ° C., 20 min",101%
same,% GlcNHCl Recovered,"Lemonade, 90 ° C., 20 sec",101%
same,% GlcNHCl Recovered,"Lemonade, boil, 5 min",100%
same,% GlcNHCl Recovered,"Lemonade, room temperature",102%
